The results in this text go back to patent publication US20020103228A1, “Composition and method for use of pyridinium derivatives in cosmetic and therapeutic applications” (TORRENT PHARMACEUTICALS LTD., priority 1999, published 2002).

SMILES strings stand for the structures.

Test [1] concerns the target T1, AGE-BSA (Bos taurus, UniProt P02769).
T1 construct: Bovine serum albumin (fraction V) (BSA); from tissue; host or cells: bovine serum (fraction V); glycated in house with 1.6 M glucose at 37 °C for 16 weeks
Kind of test: In-vitro AGE breaking activity by ELISA. The settings on record: 37° C., 24 hours. The class given is biochemical, Bovine. The procedure: AGE breaking activity has been confirmed by the screening procedure as mentioned below:
Methods of experiment: Elisa (Enzyme Linked Immunosorbent Assay)
160 mg/ml of protein, bovine serum albumin, BSA and 1.6M glucose sugar were dissolved in phosphate buffered saline, PBS. Sodium azide was added at 0.02% concentration as a preservative. The solution was filtered asceptically through a […] filter and kept for aging at 37° C. for 16 weeks. After 16 weeks the solution was dialyzed against PBS, aliquoted and stored at −20° C.
To determine the AGE breaking activity, 10 μg/ml of the 16 weeks AGE-BSA was incubated with different concentrations of the test compounds at 37° C. for 24 hours and AGE breaking activity of the test compounds by ELISA was determined.
ELISA was performed as follows
1. Different concentrations of 16 weeks AGE-BSA were coated on a microtiter plate as standard. Each concentration is coated in triplicates.
2. The test samples were coated on microtiter plate at a concentration of 5 ng to 20 ng per well in triplicates
3. The plate was incubated at 37° C. for one hour.
4. After incubation the plate was washed with PBST (PBS with 0.05% Tween 20).
5. Blocking with 5% skimmed milk in PBS at 37° C. for one hour was done.
6. The plate was washed with PBST.
7. Primary antibody against AGE-BSA was added and the plate is incubated at 37° C. for one hour.
8. The plate was washed with PBST
9. Secondary antibody anti rabbit HRPO (Horse-Radish Per Oxidase) conjugate was added and the plate is incubated at 37° C. for one hour.
10. The plate was washed with PBST.
11. Colour development with OPD (orthophenylenediamine dihydrochloride) and hydrogen peroxide was done.
12. OD (optical density) at (450 nm reading-620 nm reading) was measured after incubation at 37° C. for 15 minutes with Microplate ELISA Reader
The breaker activity of the compounds were determined by the following formula: [formula]
OD450-620Control=Absorbance of 20 ng AGE-BSA after incubation at 37° C. for 24 hours without test compound
OD450-620Test=Absorbance of 20 ng AGE-BSA after incubation at 37° C. for 24 hours with required concentration of test compound
Using specific examples, the % AGE breaking activity was calculated and recorded in Table 2.

The nature of test [2]: Free radical scavenging activity on ABTS radical cation. The class given is biochemical. Here is the method:
This method measures the relative ability of free radical scavenging substances to scavenge the ABTS^.+ i.e. 2,2-Azino-bis-(3-ethyl benzo thiazoline-6-sulfonate) radical cation as compared to a standard amount of standard or free radical scavengers antioxidants. Incubation of ABTS with Peroxidase (metmyoglobin) and hydrogen peroxide results in the production of radical cation ABTS^.+. This species is blue-green in colour and can be detected at 730 nm. Antioxidants or free radical scavengers in the added sample that causes suppression of the color to a degree that is proportional to their concentration.
Preparation of Buffer Solutions
A. Phosphate Citrate Buffer (pH 5.0). 48.5 ml of 0.1M citric acid with sufficient 0.2M disodium hydrogen phosphate to produce 100 ml.
B. Phosphate Buffer Saline (PBS): Dissolve 40.0 g of NaCl, 1.0 g of KCl, 1.0 g of KH2PO4 and 3.05 g of Na2HPO4 in 1 liter milli-Q water. Dilute 200 ml of above solution to 1 liter with milli-Q water (pH 7.4-7.6).
C. 3 μM stock solution of Peroxidase was prepared in phosphate buffer saline pH 7.4(PBS).
D. 1.08 mM stock solution of Hydrogen peroxide was prepared in phosphate buffer saline pH 7.4 (PBS).
Preparation of ABTS Stock Solution
1 tablet (10 mg) was dissolved in phosphate citrate buffer (pH 5.0).
Preparation of ABTS Working Solution
5.0 ml of ABTS stock solution was diluted with PBS to 20 ml.
Preparation of Horse Radish Peroxidase Stock Solution
320 μg of the enzyme was dissolved in 2.5 ml of PBS.
Preparation of Hydrogen Peroxide (1.08 mM) Solution
12 μl of Hydrogen Peroxide (30% w/v) was diluted to 100 ml with PBS. […]
Preparation of ABTS Radical Stock Solution
To 18 ml of ABTS stock solution, 100 μl of Horseradish Peroxidase stock solution was added.
As soon as 1.5 ml of hydrogen peroxide solution was added to the above solution, blue-green colour of the ABTS radicals appeared. This solution was incubated at 30° C. for 30 min.
Preparation of Control Solution
980 μl of ABTS radical stock solution was added to an eppendorf tube. To it was added 100 μl of various PBS solution.
Preparation of test Solution
980 μl of ABTS radical stock solutions were added to different eppendorf tubes. To it were added 100 μl of various concentrations of drug solution.
Measurement of Absorbance (O.D)
The absorbance of control and test samples was recorded immediately at 730 nm taking PBS as blank.
Calculation: The percent antioxidant activity was calculated according to the formula. % Antioxidant activity=[O.D of test sample/O.D of control*100]−100.

T1 sequence (P02769 25-607): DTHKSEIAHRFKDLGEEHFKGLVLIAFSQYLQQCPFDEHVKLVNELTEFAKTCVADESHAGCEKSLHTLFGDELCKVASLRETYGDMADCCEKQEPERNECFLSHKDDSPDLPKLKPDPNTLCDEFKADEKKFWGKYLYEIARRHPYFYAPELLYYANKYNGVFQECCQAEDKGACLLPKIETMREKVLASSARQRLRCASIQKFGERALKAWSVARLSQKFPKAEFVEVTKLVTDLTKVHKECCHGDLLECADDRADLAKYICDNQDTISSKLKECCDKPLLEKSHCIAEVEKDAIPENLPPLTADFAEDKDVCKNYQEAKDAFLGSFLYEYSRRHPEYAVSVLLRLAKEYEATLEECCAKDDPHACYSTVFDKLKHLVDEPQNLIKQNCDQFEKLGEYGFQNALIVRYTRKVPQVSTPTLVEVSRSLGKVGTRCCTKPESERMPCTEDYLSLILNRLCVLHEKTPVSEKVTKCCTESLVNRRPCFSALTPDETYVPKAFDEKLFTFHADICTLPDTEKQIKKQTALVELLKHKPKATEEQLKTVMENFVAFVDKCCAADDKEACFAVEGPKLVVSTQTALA

For the compound `COCCOC(=O)c1ccc[n+](CC(=O)c2ccc(Cl)cc2Cl)c1.[Br-]` [Compound 22, 1-(2-(2′,4′-dichlorophenyl)-2-oxoethyl)-3-(2(methoxy)ethyloxycarbonyl)pyridinium bromide], the results for the “% Breakage” value in test [1] (10 mM test compound) and in test [1] (25 mM test compound) were 13% and 41%, respectively. The “Relative Free Radical Scavenging Activity (%) on ABTS” value was 27.9% in test [2] (11.5 μM); 50.9% in test [2] (23.0 μM); 69.3% in test [2] (46.0 μM); 79.7% in test [2] (92.5 μM); 100% in test [2] (925 μM).

Consider `COCCNC(=O)c1ccc[n+](CC(=O)c2ccc(Cl)cc2Cl)c1.[Br-]` [Compound 38, 1-(2′,4′-dichlorophenyl-2-oxoethyl)-3-(2-methoxyethylaminocarbonyl)-pyridinium bromide], for which, in test [1] (5 mM test compound), the “% Breakage” value is given as 17.66%. The “Relative Free Radical Scavenging Activity (%) on ABTS” value in test [2] (11.5 μM) is on record as 47.2%; in test [2] (23.0 μM), 54.8%; in test [2] (46.0 μM), 71.0%; in test [2] (92.5 μM) it was 89.5%; in test [2] (925 μM), 100%.

As to `CS(=O)(=O)NNC(=O)c1ccc[n+](CC(=O)c2cccs2)c1.[Cl-]` [Compound 45, 1-(2-thien-2′-yl-2-oxoethyl)-3-(methanesulfonyl hydrazinocarbonyl)pyridinium chloride], the “% Breakage” value in test [1] (10 mM test compound) is 17.53%. The “Relative Free Radical Scavenging Activity (%) on ABTS” value in test [2] (11.5 μM) is recorded as 53.9%; in test [2] (23.0 μM) it was 56.2%; in test [2] (46.0 μM) it was 78.7%; in test [2] (92.5 μM), 99.8%; in test [2] (925 μM), 100%.

As to `CC(C)S(=O)(=O)NNC(=O)c1ccc[n+](CC(=O)c2cccs2)c1.[Br-]` [Compound 50, 1-(2-thien-2′-yl-2-oxoethyl)-3-(isopropylsulfonyl hydrazinocarbonyl)pyridinium bromide], the “% Breakage” value in test [1] (10 mM test compound) turned out to be 31.45%. Further, the “Relative Free Radical Scavenging Activity (%) on ABTS” value in test [2] (11.5 μM) is given as 3.30%; in test [2] (23.0 μM), 23.06%; in test [2] (46.0 μM), 54.95%; in test [2] (92.5 μM), 89.31%.

For the compound `CS(=O)(=O)NNC(=O)c1ccc[n+](CC(=O)N2CCC(Cc3ccccc3)CC2)c1.[Cl-]` [Compound 51, 1-(2-(4-benzylpiperidin-1-yl)-2-oxoethyl)-3-(methanesulfonyl hydrazinocarbonyl)pyridinium chloride], the “% Breakage” value in test [1] (10 mM test compound) stood at 20.94%. Further, the “Relative Free Radical Scavenging Activity (%) on ABTS” value in test [2] (11.5 μM) turned out to be 0.00%; in test [2] (23.0 μM), 21.64%; in test [2] (46.0 μM), 52.82%; in test [2] (92.5 μM) it was 83.94%.

Regarding `CCOC(=O)NNC(=O)c1ccc[n+](CC(=O)c2cccs2)c1.[Br-]` [Compound 54, 1-(2-thien-2′-yl-2-oxoethyl)-3-(ethoxycarbonyl hydrazinocarbonyl)pyridinium bromide], in test [1] (10 mM test compound), the “% Breakage” value turned out to be 33.43%. Moreover, the “Relative Free Radical Scavenging Activity (%) on ABTS” value in test [2] (11.5 μM) was found to be 5.22%; in test [2] (23.0 μM), 15.45%; in test [2] (46.0 μM) it was 46.82%; in test [2] (92.5 μM) it was 77.07%.

For `CS(=O)(=O)NNC(=O)c1ccc[n+](CC(=O)c2ccc(Cl)s2)c1.[Br-]` [Compound 55, 1-(2-(5-chlorothien-2-yl)-2-oxoethyl)-3-(methanesulfonyl hydrazinocarbonyl)pyridinium bromide], the “% Breakage” value in test [1] (10 mM test compound) is given as 40.85%. Moreover, the “Relative Free Radical Scavenging Activity (%) on ABTS” value in test [2] (11.5 μM) was found to be 46.47%; in test [2] (23.0 μM), 84.97%; in test [2] (46.0 μM), 99.50%; in test [2] (92.5 μM), 99.93%.

As for `O=C(NNC(=O)c1ccc[n+](CC(=O)c2cc([N+](=O)[O-])cs2)c1)c1ccc[n+](CC(=O)c2cc([N+](=O)[O-])cs2)c1.[Cl-].[Cl-]` [Compound 56, N,N′-bis[3-carbonyl-1-(2-(4-nitrothien-2-yl)-2-oxoethyl)pyridinium]hydrazine dichloride], in test [1] (10 mM test compound), the “% Breakage” value worked out at 75.92%. The “Relative Free Radical Scavenging Activity (%) on ABTS” value in test [2] (11.5 μM) was found to be 43.0%; in test [2] (23.0 μM) it was 57.2%; in test [2] (46.0 μM) it was 71.6%; in test [2] (92.5 μM), 97.7%; in test [2] (925 μM), 100%.

Regarding `NC(=O)c1cc(C(=O)NNC(=O)c2ccc[n+](CC(=O)c3cccs3)c2)c[n+](CC(=O)c2cccs2)c1.[Cl-].[Cl-]` [Compound 60, 1-[1-(2-thien-2′-yl-2-oxoethyl)-5-aminocarbonyl-3-carbonylpyridinium]-2-[1-(2-Thien-2′-yl-2-oxoethyl)-3-carbonylpyridinium]hydrazine dichloride], the “% Breakage” value in test [1] (1 mM test compound) is 95.36%. The “Relative Free Radical Scavenging Activity (%) on ABTS” value in test [2] (11.5 μM) is on record as 44.1%; in test [2] (23.0 μM), 59.8%; in test [2] (46.0 μM), 69.4%; in test [2] (92.5 μM) it was 99.9%; in test [2] (925 μM), 100%.

`Cc1ccc(C(=O)C[n+]2cccc(C(=O)NNS(C)(=O)=O)c2)s1.[Cl-]` [Compound 63, 1-(2-(5-methylthien-2-yl)-2-oxoethyl)-3-(methanesulfonyl hydrazinocarbonyl)pyridinium chloride]: the “% Breakage” value in test [1] (10 mM test compound) stood at 25.17%. Further, the “Relative Free Radical Scavenging Activity (%) on ABTS” value in test [2] (11.5 μM) turned out to be 10.75%; in test [2] (23.0 μM), 47.20%; in test [2] (46.0 μM), 88.64%; in test [2] (92.5 μM), 99.18%.
